Drawing on ChEMBL document CHEMBL1153026, “Cytotoxic 3,4-seco-cycloartane triterpenes from Gardenia sootepensis” (J Nat Prod, 2009), this text covers IC50 for ten compounds.

Test [1] is described as follows: Cytotoxicity against human KATO III cells after 3 days by MTT assay. Type of test: functional, cell-based, KATO III cell. To be noted: 72 h. (In general: Formazan colour is commonly taken as a measure of viable cells.)
In test [2] the test system is SW-620. Nature of the test: Cytotoxicity against human SW620 cells after 3 days by MTT assay. It is filed as functional, cell-based. The settings on record: SW-620, 72 h.
In test [3] the test system is HepG2. Nature of the test: Cytotoxicity against human HepG2 cells after 3 days by MTT assay. Type of test: functional, cell-based. The settings on record: HepG2, 72 h.
The subject of test [4] is BT-474. In words: Cytotoxicity against human BT474 cells after 3 days by MTT assay. The settings on record: BT-474, 72 h. Type of test: functional, cell-based.
A short description of test [5]: Cytotoxicity against human ChaGo cells after 3 days by MTT assay. To be noted: 72 h. It is filed as functional, cell-based.

Values after ≈ are worked out from the molar mass of the structure shown. Bounds are passed on as bounds.

For the compound `C=C(CO)[C@@H]1CC[C@@H]2[C@]3(CC[C@]4(C)[C@@H]([C@H](C)CC/C=C(\C)C=O)CC[C@@]24C)C[C@]13CCC(=O)OC` [SOOTEPIN D], the IC50 in test [1] was 7.35 µg/mL (≈ 15.2 µM); in test [2], more than 10 µg/mL; in test [3], more than 10 µg/mL; in test [4], more than 10 µg/mL; in test [5], more than 10 µg/mL.

As to `C=C(CO)[C@@H]1CC[C@H]2[C@]3(CC[C@]4(C)[C@@H]([C@H](C)CCC=C(C)C)CC[C@@]24C)C[C@]13CCC(=O)O` [SECAUBRYENOL], the IC50 in test [1], in test [2], in test [3], in test [4] and in test [5] was more than 10 µg/mL each time.

Take `COc1cccc2c1C(=O)c1c(O)c3c(c(O)c1C2=O)C[C@@](O)(C(=O)CO)C[C@@H]3O[C@H]1C[C@H](N)[C@H](O)[C@H](C)O1` [DOXORUBICIN]: the IC50 in test [1] is 5.45 µg/mL (≈ 10 µM); in test [2], more than 10 µg/mL; in test [3] it was 3.36 µg/mL (≈ 6.18 µM); in test [4], 8.92 µg/mL (≈ 16.4 µM); in test [5] it was 3.98 µg/mL (≈ 7.32 µM).

For `C=C1C(=O)O[C@@H]2C[C@@H]3[C@]4(CC[C@]5(C)[C@@H]([C@H](C)CC/C=C(\C)CO)CC[C@@]35C)C[C@]4(CCC(=O)OC)[C@H]12` [SOOTEPIN A], the IC50 in test [1] was 2.1 µg/mL (≈ 4.21 µM); in test [2] it was 1.8 µg/mL (≈ 3.61 µM); in test [3], 2.9 µg/mL (≈ 5.82 µM); in test [4], 5.92 µg/mL (≈ 11.9 µM); in test [5] it was 3.97 µg/mL (≈ 7.96 µM).

For the compound `C=C1C(=O)O[C@H]2C[C@@H]3[C@@]4(CC[C@]5(C)[C@H]([C@@H](C)CC/C=C(\C)C=O)CC[C@@]35C)C[C@]4(CCC(=O)OC)[C@@H]12` [CORONALOLIDE METHYL ESTER], the 50% inhibitory concentration (IC50) is 8.64 µg/mL (≈ 17.4 µM) in test [1]; 6.19 µg/mL (≈ 12.5 µM) in test [2]; 6.8 µg/mL (≈ 13.7 µM) in test [3]; more than 10 µg/mL in test [4]; more than 10 µg/mL in test [5].

As to `C=C(C)[C@@H]1CC[C@@H]2[C@]3(CC[C@]4(C)[C@@H]([C@H](C)CCC=C(C)C)CC[C@@]24C)C[C@]13CCC(=O)O` [SOOTEPIN E], the IC50 in test [1] is 1.91 µg/mL (≈ 4.33 µM); in test [2], 4.22 µg/mL (≈ 9.58 µM); in test [3], 3.14 µg/mL (≈ 7.12 µM); in test [4] it was 6.07 µg/mL (≈ 13.8 µM); in test [5], 5.2 µg/mL (≈ 11.8 µM).

As for `C=C1C(=O)O[C@@H]2C[C@@H]3[C@]4(CC[C@]5(C)[C@@H]([C@H](C)CCC=C(C)C)CC[C@@]35C)C[C@]4(CCC(=O)OC)[C@H]12` [TUBIFEROLIDE METHYL ESTER], the IC50 in test [1] stood at 4.9 µg/mL (≈ 10.2 µM); in test [2] it was 5.78 µg/mL (≈ 12 µM); in test [3], 3.41 µg/mL (≈ 7.06 µM); in test [4], 5.33 µg/mL (≈ 11 µM); in test [5] it was 4.08 µg/mL (≈ 8.45 µM).

As to `C=C1C(=O)O[C@@H]2C[C@@H]3[C@]4(CC[C@]5(C)[C@@H]([C@H](C)CCC=C(C)C)CC[C@@]35C)C[C@]4(CCC(=O)O)[C@H]12` [SOOTEPIN B], the IC50 in test [1] is 3.68 µg/mL (≈ 7.85 µM); in test [2], 5.57 µg/mL (≈ 11.9 µM); in test [3] it was 5.86 µg/mL (≈ 12.5 µM); in test [4], 4.98 µg/mL (≈ 10.6 µM); in test [5], 5.24 µg/mL (≈ 11.2 µM).

Take `C=C1C(=O)O[C@@H]2C[C@@H]3[C@]4(CC[C@]5(C)[C@@H]([C@H](C)CC/C=C(\C)C=O)CC[C@@]35C)C[C@]4(CCC(=O)O)[C@H]12` [CORONALOLIDE]: the concentration for half-maximal inhibition (IC50) came to 5.85 µg/mL (≈ 12.1 µM) in test [1]; 4.98 µg/mL (≈ 10.3 µM) in test [2]; 6.41 µg/mL (≈ 13.3 µM) in test [3]; 6.59 µg/mL (≈ 13.7 µM) in test [4]; 5.42 µg/mL (≈ 11.2 µM) in test [5].

On to `C=C(CO)[C@@H]1CC[C@@H]2[C@]3(CC[C@]4(C)[C@@H]([C@H](C)CCC=C(C)C)CC[C@@]24C)C[C@]13CCC(=O)OC` [SOOTEPIN C], for which the IC50 in test [1] was 7.79 µg/mL (≈ 16.5 µM); in test [2], more than 10 µg/mL; in test [3] it was 3.49 µg/mL (≈ 7.41 µM); in test [4] it was more than 10 µg/mL; in test [5] it was more than 10 µg/mL.

By IC50 is commonly meant the concentration needed to halve the response being measured.
